Paper PMC6031871 (Bioorganic & medicinal chemistry, 2010)
Like-named read-outs stand apart in the source and are kept apart here. Values belong to the molecule of their own block, whether it stands above or below them.

Columns and labels:
Type in all cases: biochemical
HCPTP-A = target: T1, HCPTP-A (Homo sapiens, UniProt P24666); assay: pNPP phosphatase inhibition assay, HCPTP-A
T1 sequence (P24666 1-158): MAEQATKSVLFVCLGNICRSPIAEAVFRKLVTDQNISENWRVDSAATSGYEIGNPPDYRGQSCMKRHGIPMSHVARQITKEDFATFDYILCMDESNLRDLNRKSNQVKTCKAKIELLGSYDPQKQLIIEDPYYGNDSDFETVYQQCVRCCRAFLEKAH

HCPTP-B = target: T2, HCPTP-B (Homo sapiens, UniProt P24666); assay: pNPP phosphatase inhibition assay, HCPTP-B; settings: for inhibition at 100 µM: pH 5, read-out: inhibition of HCPTP-B activity
T2 sequence (P24666 1-158 isoform P24666-2): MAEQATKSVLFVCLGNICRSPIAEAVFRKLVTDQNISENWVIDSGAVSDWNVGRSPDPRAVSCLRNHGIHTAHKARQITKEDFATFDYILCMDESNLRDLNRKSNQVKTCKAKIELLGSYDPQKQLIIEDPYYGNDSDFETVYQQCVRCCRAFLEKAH

HCPTP [1] = target: T3, HCPTP (Homo sapiens, UniProt P24666); assay: single concentration screen repeated with 0.01% Triton X-100; settings: 0.01% Triton X-100 and reducing agents
T3 sequence (P24666 1-158): T1 sequence (P24666 1-158)

HCPTP [2] = target: T4, HCPTP (Homo sapiens, UniProt P24666); assay: pNPP single concentration screen, isoform not specified; settings: pH 5, read-out: elevation of the activity of HCPTP
T4 sequence (P24666 2-158): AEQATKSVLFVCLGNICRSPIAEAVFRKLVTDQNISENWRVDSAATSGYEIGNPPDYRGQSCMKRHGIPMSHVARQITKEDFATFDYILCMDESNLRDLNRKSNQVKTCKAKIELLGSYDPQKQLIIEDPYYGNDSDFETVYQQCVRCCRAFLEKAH

[3] = pH 7, read-out: reduction of the activity of HCPTP-A, 100 μM compound, pH 7
[4] = pH 5, read-out: inhibition of HCPTP-A activity, 100 μM compound, pH 5
[5] = IC50 HCPTP-B, pH 5 (Table I), pNPP substrate, 25 °C
[6] = IC50 HCPTP-A pH 5, pH 5 (Table II)
[7] = IC50 HCPTP-A, pH 5 (Table I), pNPP substrate, 25 °C
[8] = pH 5, read-out: inhibition of HCPTP-A activity
[9] = pH 7, read-out: reduction of the activity of HCPTP-A
[10] = IC50 HCPTP-A pH 5 (dash class), pH 5 (Table II), dash entries
[11] = read-out: IC50 HCPTP-A pH 7, pH 7 (Table II)

inhibition at 100 µM (HCPTP-A; [3]): ≥ 10%
SMILES: N=C(N)NC(=N)Nc1ccc(S(=O)(=O)O)cc1 [Compound 17580]

inhibition at 100 µM (HCPTP-B): ≥ 10%
inhibition at 100 µM (HCPTP-A; [4]): ≥ 10%
inhibition at 100 µM (HCPTP-A; [3]): ≥ 10%
SMILES: N=C(Cc1ccccc1)NCC(=O)O [Compound 27895]

reduction of the activity of HCPTP-A (HCPTP-A; 100 μM compound, pH 7): at least 10%
SMILES: CCc1ccc(CCC(=O)O)nc1 [Compound 35989]

inhibition at 100 µM (HCPTP-A; [3]): ≥ 10%
SMILES: Cn1c(=O)c2[nH]c(CCC(=O)O)nc2n(C)c1=O [Compound 36534]

IC50 (HCPTP-B; [5]): 3.9 µM
inhibition at 100 µM (HCPTP-B): ≥ 10%
IC50 (HCPTP-A; [6]): 5.5 µM
IC50 (HCPTP-A; [7]): 5.5 µM
inhibition at 100 µM (HCPTP-A; [4]): ≥ 10%
SMILES: O=S(=O)(O)c1ccc2c(/N=N/c3c(O)ccc4ccccc34)cccc2c1 [Compound 45576]
level of inhibition in the presence of detergent (HCPTP [1]): maintained an approximately constant level of inhibition

inhibition at 100 µM (HCPTP-A; [3]): ≥ 10%
SMILES: NC(Cc1c[nH]c2ccc([N+](=O)[O-])cc12)C(=O)O (stereo not shown) [Compound 58612]

activation at 100 µM (HCPTP [2]): ≥ 10%
IC50 (HCPTP-A; [10]): > 100 µM
IC50 (HCPTP-A; [11]): 51 µM
SMILES: NC(Cc1c[nH]c2cc([N+](=O)[O-])ccc12)C(=O)O (stereo not shown) [Compound 65763]

inhibition at 100 µM (HCPTP-B): ≥ 10%
IC50 (HCPTP-A; [10]): > 100 µM
inhibition at 100 µM (HCPTP-A; [4]): ≥ 10%
IC50 (HCPTP-A; [11]): 72 µM
SMILES: O=C(O)/C(Cc1ccnc2ccccc12)=N/O [Compound 85359]

activation at 100 µM (HCPTP [2]): ≥ 10%
inhibition at 100 µM (HCPTP-A; [3]): ≥ 10%
SMILES: CC(=O)Nc1ccc(-c2ccc3[nH]c(=O)cc(C)c3c2)cc1 [Compound 109816]

IC50 (HCPTP-B; [5]): 4.5 µM
inhibition at 100 µM (HCPTP-B): ≥ 10%
IC50 (HCPTP-A; [6]): 5.5 µM
IC50 (HCPTP-A; [7]): 5.5 µM
inhibition at 100 µM (HCPTP-A; [4]): ≥ 10%
IC50 (HCPTP-A; [11]): 3.6 µM
SMILES: O=C1C2=C(CC=CC2)C(=O)c2c(Nc3ccc(S(=O)(=O)O)cc3)ccc(Nc3ccccc3)c21 [Compound 128437]
level of inhibition in the presence of detergent (HCPTP [1]): maintained an approximately constant level of inhibition

inhibition at 100 µM (HCPTP-A; [3]): ≥ 10%
SMILES: Nc1cncc(Nc2ccc(S(N)(=O)=O)cc2)n1 [Compound 135784]

inhibition at 100 µM (HCPTP-A; [3]): ≥ 10%
SMILES: CC1CN(CC(N)C(=O)O)C(=O)NC1=O (stereo not shown) [Compound 151831]

IC50 (HCPTP-A; [10]): > 100 µM
IC50 (HCPTP-A; [11]): 4 µM
SMILES: O=C(O)C1CSC2(CCN(c3ccccc3)CC2)N1 (stereo not shown) [Compound 319095]
level of inhibition in the presence of detergent (HCPTP [1]): maintained an approximately constant level of inhibition

inhibition at 100 µM (HCPTP-A; [3]): ≥ 10%
SMILES: Nc1nc(-c2ccc3ccccc3c2)cc(-c2cc(-c3ccc4ccccc4c3)nc(N)n2)n1 [Compound 371878]

inhibition at 100 µM (HCPTP-B): ≥ 10%
inhibition at 100 µM (HCPTP-A; [4]): ≥ 10%
SMILES: NC(Cc1ccc2oc3cc(=O)c4ccccc4c-3nc2c1)C(=O)O (stereo not shown) [Compound 643735]

inhibition at 100 µM (HCPTP-A; [3]): ≥ 10%
SMILES: NC(c1c[nH]c2ccccc12)P(=O)(O)O (stereo not shown) [Compound 669581]

IC50 (HCPTP-B; read-out: IC50 HCPTP-B, general phosphatase inhibitor, pH not stated): 61 µM
IC50 (HCPTP-A; read-out: IC50 HCPTP-A, general phosphatase inhibitor, pH not stated): 11 µM
SMILES: [O]=[V]([OH])([OH])[OH] [orthovanadate, reference compound]

Continued, molecule first:

SMILES: C[C@]12CC[C@@H]3c4ccc(OP(=O)(O)O)cc4CC[C@H]3[C@@H]1CCC2=O [Compound 18320]
inhibition at 100 µM (HCPTP-A; [3]): ≥ 10%

SMILES: Cc1ncc(OP(=O)(O)O)c(C)c1O [Compound 29870]
inhibition at 100 µM (HCPTP-B): ≥ 10%
inhibition at 100 µM (HCPTP-A; [4]): ≥ 10%

SMILES: NC(Cc1ccccc1)P(=O)(O)O (stereo not shown) [Compound 30080]
IC50 (HCPTP-B; [5]): 139 µM
inhibition at 100 µM (HCPTP-B): ≥ 10%
IC50 (HCPTP-A; [6]): 223 µM
IC50 (HCPTP-A; IC50 HCPTP-A pH 7 (dash class), pH 7 (Table II), dash entries): > 100 µM
IC50 (HCPTP-A; [7]): 223 µM
inhibition at 100 µM (HCPTP-A; [8]): ≥ 10%
inhibition at 100 µM (HCPTP-A; [9]): ≥ 10%

SMILES: CC12CC(=O)C3C(CCC4=CC(=O)CCC43C)C1CC=C2CC(=O)O (stereo not shown) [Compound 86008]
inhibition at 100 µM (HCPTP-A; [3]): ≥ 10%

SMILES: CC1OC(OC2C(O)C(O)C(O)C(O)C2O)C(N)CC1NC(=N)C(=O)O (stereo not shown) [Compound 100858]
inhibition at 100 µM (HCPTP-A; [3]): ≥ 10%

SMILES: C[C@]12CC[C@@H]3c4ccc(O)cc4CC[C@H]3[C@@H]1C/C(=N\O)[C@@H]2O [Compound 112737]
inhibition at 100 µM (HCPTP-A; [3]): ≥ 10%

SMILES: CC12CCC(=O)C=C1CCC1C2CCC2(C)C(C(=O)Cn3cnc4c(=S)nc[nH]c43)CCC12 (stereo not shown) [Compound 114792]
inhibition at 100 µM (HCPTP-B): ≥ 10%
inhibition at 100 µM (HCPTP-A; [4]): ≥ 10%

SMILES: Nc1nc(N)c(N=Nc2ccc([As](=O)(O)O)c(O)c2)c(N)n1 [Compound 117281]
inhibition at 100 µM (HCPTP-A; [9]): ≥ 10%

SMILES: CC[C@H]1CN2CCc3cc(OC)c(OC)cc3C2C[C@@H]1C[C@@H]1NCCc2c1[nH]c1ccc(O)cc21 (stereo partly shown) [Compound 131547]
inhibition at 100 µM (HCPTP-A; [9]): ≥ 10%

SMILES: NC(c1ccccc1)P(=O)(O)O (stereo not shown) [Compound 133811]
inhibition at 100 µM (HCPTP-B): ≥ 10%
inhibition at 100 µM (HCPTP-A; [4]): ≥ 10%

SMILES: O=C(O)CC1NCc2cc3ccccc3nc21 (stereo not shown) [Compound 141566]
inhibition at 100 µM (HCPTP-B): ≥ 10%
IC50 (HCPTP-A; [10]): > 100 µM
IC50 (HCPTP-A; IC50 HCPTP-A pH 7, pH 7 (Table II)): 4.8 µM
inhibition at 100 µM (HCPTP-A; [4]): ≥ 10%

SMILES: Oc1cc(O)c2c(c1)OC(c1ccc(O)c(O)c1)C(O)C2c1c(O)cc(O)c2c1OC(c1ccc(O)c(O)c1)C(O)C2 (stereo not shown) [Compound 143099]
activation at 100 µM (HCPTP [2]): ≥ 10%

SMILES: NC(Cc1cc(Br)c(O)c(Br)c1)C(=O)O (stereo not shown) [Compound 210786]
activation at 100 µM (HCPTP [2]): ≥ 10%
IC50 (HCPTP-A; [10]): > 100 µM
IC50 (HCPTP-A; [11]): 4.6 µM

SMILES: NC1CCCCC1P(=O)(O)O (stereo not shown) [Compound 320308]
inhibition at 100 µM (HCPTP-B): ≥ 10%
inhibition at 100 µM (HCPTP-A; [8]): ≥ 10%

SMILES: C[S+](=N)([O-])CCP(=O)(O)O (stereo not shown) [Compound 359098]
inhibition at 100 µM (HCPTP-A; [9]): ≥ 10%
